Laboratory results published in patent US20180010132A1, “INHIBITION OF PRMT5 TO TREAT MTAP-DEFICIENCY-RELATED DISEASES” (NOVARTIS AG, priority 2014, published 2018).

How the values were obtained:
[1] = molecular target: PRMT5 (Homo sapiens, UniProt O14744); details: methylating the substrate E2-F-1; cited from earlier work
[2] = molecular target: PRMT5/MEP50 complex (Homo sapiens, UniProt O14744); assay: LC/MS based biochemical histone methyltransferase assay
Procedure: Top: Schematic representation of multi-allele dual-selection assay with P2A or STOP insertion cassettes and crystal violet staining of cells. […] Profiling of the inhibitory activity (IC50) of adenosine and MTA across a panel of histone methyltransferases (HMTs) in an LC/MS based biochemical assay. MTA and adenosine display single digit μM activity against the PRMT5/MEP50 complex (red) but have no activity (IC50>100 μM) across all other HMTs tested. […] MIAPaCa2 cells stably expressing inducible shPRMT5-2 were transduced with pRetro empty vector control or with MTAP cDNA and proliferation assessed by confluence measurements using Incucyte. […] FIGS. 3 K and L show in vitro proliferation assay of PK1 MTAP isogenic cell lines generated from a non-targeting control sgRNA FIG. 3 K, PK1 CTRL; or with a sgRNA targeting MTAP 1, PK1 MTAP KO and stably expressing Dox-inducible PRMT5 (shPRMT5-2) with and without treatment with doxycycline (+/−Dox) over time (hours) as assessed by incucyte (n=24 per treatment condition). […] FIGS. 3 M and N show focus formation of PK1 (FIG. 3M), wild type (WT) and (FIG. 3N), MTAP knockout (MTAP KO) cells treated with DMSO or MTA at concentrations as indicated.

Chain of PRMT5/MEP50 complex (O14744 whole entry): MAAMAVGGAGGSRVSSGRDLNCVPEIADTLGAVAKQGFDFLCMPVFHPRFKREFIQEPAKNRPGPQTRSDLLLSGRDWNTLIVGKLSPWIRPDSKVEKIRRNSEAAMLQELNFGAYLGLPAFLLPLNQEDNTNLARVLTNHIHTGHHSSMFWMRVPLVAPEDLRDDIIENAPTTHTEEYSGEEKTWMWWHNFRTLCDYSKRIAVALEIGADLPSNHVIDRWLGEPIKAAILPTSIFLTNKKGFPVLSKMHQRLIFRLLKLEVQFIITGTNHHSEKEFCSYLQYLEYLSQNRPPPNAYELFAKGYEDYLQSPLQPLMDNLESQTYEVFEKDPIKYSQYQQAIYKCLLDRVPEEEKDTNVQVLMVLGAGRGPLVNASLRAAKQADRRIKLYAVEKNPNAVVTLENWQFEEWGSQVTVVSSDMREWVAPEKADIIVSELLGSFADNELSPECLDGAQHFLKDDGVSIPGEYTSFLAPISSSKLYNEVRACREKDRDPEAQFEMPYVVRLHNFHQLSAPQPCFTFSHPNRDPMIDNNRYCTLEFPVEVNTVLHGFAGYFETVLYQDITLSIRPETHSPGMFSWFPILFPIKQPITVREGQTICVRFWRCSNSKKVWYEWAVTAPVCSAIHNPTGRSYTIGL
Chain of PRMT5/MEP50 complex (Q9BQA1 whole entry partner): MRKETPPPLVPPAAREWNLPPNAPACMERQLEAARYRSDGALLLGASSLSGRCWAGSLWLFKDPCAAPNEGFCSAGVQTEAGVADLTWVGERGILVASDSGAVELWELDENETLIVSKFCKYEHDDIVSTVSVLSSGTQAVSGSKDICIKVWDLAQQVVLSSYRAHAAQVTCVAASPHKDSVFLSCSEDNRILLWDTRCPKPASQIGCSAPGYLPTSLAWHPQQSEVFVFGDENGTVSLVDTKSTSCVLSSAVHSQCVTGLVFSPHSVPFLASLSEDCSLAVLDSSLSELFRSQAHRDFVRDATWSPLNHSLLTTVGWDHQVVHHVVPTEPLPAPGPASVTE
Chain of PRMT5 (O14744 whole entry): as the sequence (O14744 whole entry) above
Chain of PRMT5 (Q9BQA1 whole entry partner): as the sequence (Q9BQA1 whole entry partner) above

## Nc1ncnc2c1ncn2[C@@H]1O[C@H](C[C@@H](N)CC[C@H](N)C(=O)O)C(O)C1O (stereo in doubt) [Sinefungin, 5′-Deoxy-5′-(1,4-diamino-4-carboxybutyl)adenosine]
[1]
  PRMT5 activity: inhibits

## Nc1ncnc2c1ncn2[C@@H]1O[C@H](CO)[C@@H](O)[C@H]1O [adenosine]
[2]
  inhibitory activity (IC50): single digit

## CSC[C@H]1O[C@@H](n2cnc3c(N)ncnc32)[C@H](O)[C@@H]1O [MTA, methyl-thioadenosine]
[2]
  inhibitory activity (IC50): single digit
